Active and inactive are the calls of the source. The rule behind the calls is not given here.
Legend:
MCF7 [1] = experiment: Antiproliferative activity against human MCF7 cells assessed as inhibition of cell growth measured after 6 days by cell titre glo luminescence assay; details: MCF7, 144 h
Estrogen receptor beta = Estrogen receptor beta (Homo sapiens, UniProt Q92731); experiment: Antagonist activity at ERbeta expressed in HEK293/Gal4 cells incubated for 24 hrs in presence of di-arylpropionitrile by luciferase reporter gene assay
[2] = Cmax in Sprague-Dawley rat at 10 mg/kg, po measured up to 24 hrs by LC/MS/MS analysis; assay type: ADME, organism-based; design: time < 24 hrs, dose 10 mg/kg, route po; details: in vivo
[3] = AUC (0 to t) in Sprague-Dawley rat at 10 mg/kg, po measured up to 24 hrs by LC/MS/MS analysis; assay type: ADME, organism-based; design: time < 24 hrs, dose 10 mg/kg, route po; details: in vivo
[4] = Elimination half life in Sprague-Dawley rat at 10 mg/kg, po measured up to 24 hrs by LC/MS/MS analysis; assay type: ADME, organism-based; details: in vivo, read-out: beta t1/2 (converted)
[5] = Elimination half life in ICR mouse at 2 mg/kg, iv measured up to 24 hrs by LC/MS/MS analysis; assay type: ADME, organism-based; details: in vivo, read-out: beta t1/2 (converted)
[6] = Tmax in ICR mouse at 5 mg/kg, po measured up to 24 hrs by LC/MS/MS analysis; assay type: ADME, organism-based; details: in vivo
[7] = Cmax in ICR mouse at 2 mg/kg, iv measured up to 24 hrs by LC/MS/MS analysis; assay type: ADME, organism-based; design: dose 2 mg/kg, time < 24 hrs, route iv; details: in vivo
[8] = Cmax in ICR mouse at 5 mg/kg, po measured up to 24 hrs by LC/MS/MS analysis; assay type: ADME, organism-based; design: dose 5 mg/kg, time < 24 hrs, route po; details: in vivo
[9] = AUC (0 to t) in ICR mouse at 2 mg/kg, iv measured up to 24 hrs by LC/MS/MS analysis; assay type: ADME, organism-based; design: dose 2 mg/kg, time < 24 hrs, route iv; details: in vivo
[10] = MRT in ICR mouse at 5 mg/kg, po measured up to 24 hrs by LC/MS/MS analysis; assay type: ADME, organism-based; details: in vivo
[11] = Volume of distribution at steady state in ICR mouse at 2 mg/kg, iv measured up to 24 hrs by LC/MS/MS analysis; assay type: ADME, organism-based; details: in vivo, read-out: Vdss
[12] = Oral bioavailability in ICR mouse at 5 mg/kg measured up to 24 hrs by LC/MS/MS analysis; assay type: ADME, organism-based; details: in vivo
T47D = experiment: Antiproliferative activity against human T47D cells assessed as inhibition of cell growth measured after 7 days by cell titre glo luminescence assay; assay type: functional, cell-based; details: time 7.0 day
CAMA-1 = experiment: Antiproliferative activity against human CAMA-1 cells assessed as inhibition of cell growth measured after 8 days by cell titre glo luminescence assay; assay type: functional, cell-based; details: time 8.0 day
MDA-MB-361 = experiment: Antiproliferative activity against human MDA-MB-361 cells assessed as inhibition of cell growth measured after 10 days by cell titre glo luminescence assay; assay type: functional, cell-based; details: time 10.0 day
BT-474 = experiment: Antiproliferative activity against human BT-474 cells assessed as inhibition of cell growth measured after 7 days by cell titre glo luminescence assay; assay type: functional, cell-based; details: time 7.0 day
[13] = Antiproliferative activity against human MCF-7/TAMR-1 cells assessed as inhibition of cell growth measured after 8 days by cell titre glo luminescence assay; details: MCF-7/TAMR-1, 192 h
[14] = biological target: T1, Estrogen receptor (Homo sapiens) (UniProt P03372); experiment: Induction of ERalpha degradation in human MCF7 cells at 5 uM incubated 24 hrs by Western blot analysis; assay type: cell-based
T1 sequence (whole entry): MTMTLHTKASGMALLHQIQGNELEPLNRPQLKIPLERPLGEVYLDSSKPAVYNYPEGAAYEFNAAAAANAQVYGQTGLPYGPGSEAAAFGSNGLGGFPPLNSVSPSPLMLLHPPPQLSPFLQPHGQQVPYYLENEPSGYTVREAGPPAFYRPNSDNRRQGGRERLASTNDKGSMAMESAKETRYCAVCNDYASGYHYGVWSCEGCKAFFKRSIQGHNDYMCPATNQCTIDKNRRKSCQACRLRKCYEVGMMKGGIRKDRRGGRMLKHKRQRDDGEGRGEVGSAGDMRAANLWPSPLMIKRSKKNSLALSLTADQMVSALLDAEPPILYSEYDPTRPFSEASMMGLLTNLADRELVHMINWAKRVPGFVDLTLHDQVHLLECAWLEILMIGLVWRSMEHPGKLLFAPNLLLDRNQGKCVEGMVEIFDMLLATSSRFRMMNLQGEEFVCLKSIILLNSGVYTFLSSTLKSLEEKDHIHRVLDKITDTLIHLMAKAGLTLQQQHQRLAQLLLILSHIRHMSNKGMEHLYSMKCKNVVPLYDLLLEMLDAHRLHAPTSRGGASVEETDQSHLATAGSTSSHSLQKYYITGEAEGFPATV

[15] = biological target: T1, Estrogen receptor (Homo sapiens); experiment: Induction of ERalpha degradation in human BT-474 cells incubated 24 hrs by Western blot analysis; assay type: cell-based; details: dose 0.1-1000 nM, DDE = dose-dependent effect
[16] = biological target: T1, Estrogen receptor (Homo sapiens); experiment: Induction of ERalpha degradation in human MCF7 cells at 1 nM by Western blot analysis; assay type: cell-based; details: time 0.5-24 hrs, TDE = time-dependent effect
Estrogen receptor = Estrogen receptor (Homo sapiens, UniProt P03372, D538G); experiment: Antagonist activity at ERalpha D538G mutant degradation in human SK-BR-3 cells incubated for 24 hrs in presence of beta-estradiol by luciferase gene assay; assay type: cell-based
[17] = tested on: Estrogen receptor (Homo sapiens), P03372 [Y537S]; experiment: Induction of ERalpha Y537S mutant degradation in human MCF7 cells at 10 to 100 nM incubated for 4 hrs by Western blot analysis; assay type: cell-based; details: dose 10-100 nM
MCF7 [18] = experiment: Antitumor activity against tamoxifen-sensitive human MCF7 cells xenografted in athymic mouse assessed as reduction in tumor growth at 15 mg/kg, po qd measured after 21 days; details: 504 h, read-out: TGI
[19] = Toxicity in athymic mouse xenografted with tamoxifen-sensitive human MCF7 cells assessed as body weight loss at 5 to 15 mg/kg, po qd incubated for 21 days; assay type: organism-based; details: in vivo, 504 h, dose 5-15 mg/kg, time 21 day
[20] = Drug concentration in rat plasma at 20 mg/kg, po measured after 2 hrs; assay type: ADME, organism-based
[21] = Drug concentration in rat blood at 20 mg/kg, po measured after 2 hrs; assay type: ADME, organism-based; details: whole blood, read-out: Ct
[22] = Drug concentration in rat brain at 20 mg/kg, po measured after 2 hrs; assay type: ADME, organism-based; details: read-out: Ct
[23] = Drug concentration in rat ovary at 20 mg/kg, po measured after 2 hrs; assay type: ADME, organism-based, Female gonad; details: female, read-out: Ct
[24] = Drug concentration in rat liver at 20 mg/kg, po measured after 2 hrs; assay type: ADME, organism-based; details: read-out: Ct
[25] = Ratio of drug concentration in rat brain to plasma at 20 mg/kg, po measured after 2 hrs
[26] = Ratio of drug concentration in rat ovary to plasma at 20 mg/kg, po measured after 2 hrs; details: female
[27] = Ratio of drug concentration in rat uterus to plasma at 20 mg/kg, po measured after 2 hrs; details: female
[28] = Ratio of drug concentration in rat liver to plasma at 20 mg/kg, po measured after 2 hrs
[29] = Ratio of drug concentration in rat kidney to plasma at 20 mg/kg, po measured after 2 hrs
[30] = Ratio of drug concentration in rat breast to plasma at 20 mg/kg, po measured after 2 hrs

Chain of Estrogen receptor (P03372 whole entry D538G): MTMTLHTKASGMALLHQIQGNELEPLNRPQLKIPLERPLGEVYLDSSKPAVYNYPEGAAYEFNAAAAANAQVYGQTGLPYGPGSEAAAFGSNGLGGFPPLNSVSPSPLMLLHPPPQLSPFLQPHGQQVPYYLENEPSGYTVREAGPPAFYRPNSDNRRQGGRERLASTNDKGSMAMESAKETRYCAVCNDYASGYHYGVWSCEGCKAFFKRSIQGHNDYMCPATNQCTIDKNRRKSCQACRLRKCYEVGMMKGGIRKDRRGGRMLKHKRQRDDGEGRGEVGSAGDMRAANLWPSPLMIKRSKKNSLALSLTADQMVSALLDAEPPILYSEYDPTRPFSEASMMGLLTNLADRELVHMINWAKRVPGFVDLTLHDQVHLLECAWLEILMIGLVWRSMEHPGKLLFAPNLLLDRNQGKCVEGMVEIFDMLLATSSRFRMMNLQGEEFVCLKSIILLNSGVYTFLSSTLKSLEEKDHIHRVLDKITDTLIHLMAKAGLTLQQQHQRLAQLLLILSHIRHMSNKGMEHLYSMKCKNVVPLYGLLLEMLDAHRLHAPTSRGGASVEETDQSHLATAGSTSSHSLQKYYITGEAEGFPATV
Chain of Estrogen receptor beta (Q92731 whole entry, the tested form may be a part): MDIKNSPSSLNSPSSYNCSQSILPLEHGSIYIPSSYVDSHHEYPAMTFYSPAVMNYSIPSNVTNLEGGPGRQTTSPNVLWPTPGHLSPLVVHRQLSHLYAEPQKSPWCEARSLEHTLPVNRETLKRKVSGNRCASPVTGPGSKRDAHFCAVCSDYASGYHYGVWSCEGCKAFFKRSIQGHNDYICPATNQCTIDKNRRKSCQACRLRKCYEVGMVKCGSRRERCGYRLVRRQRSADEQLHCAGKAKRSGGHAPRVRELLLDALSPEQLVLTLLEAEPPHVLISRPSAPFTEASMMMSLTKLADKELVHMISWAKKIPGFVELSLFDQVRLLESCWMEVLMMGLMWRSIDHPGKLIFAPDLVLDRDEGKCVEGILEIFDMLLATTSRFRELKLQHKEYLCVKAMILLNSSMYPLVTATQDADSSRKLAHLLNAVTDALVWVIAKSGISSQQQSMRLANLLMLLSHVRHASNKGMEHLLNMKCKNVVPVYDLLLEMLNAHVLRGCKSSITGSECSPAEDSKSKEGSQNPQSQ
Chain of Estrogen receptor (Homo sapiens), P03372 [Y537S] (P03372 whole entry Y537S): as the sequence (P03372 whole entry D538G) above, with Y537S, G538D counted along it

Compound `CC(F)(F)c1cc(Cl)ccc1-c1sc2c(ccc3[nH]ncc32)c1Oc1ccc(OC2CN(CCCF)C2)cc1` has an IC50 (MCF7 [1]) of 1 nM, an IC50 (Estrogen receptor beta) of 2.3 nM and a Cmax [2] of 340 ng/mL. For the same compound, the AUC(0-t) at 24 h [3] was 3180 ng·h/mL, the half-life [4] was 276 min and the half-life [5] was 276 min. It also gave a Tmax [6] of 2.7 h, a Cmax [7] of 764 ng/mL and a Cmax [8] of 768 ng/mL. For the same compound, the AUC(0-t) at 24 h [9] was 4630 ng·h/mL, the MRT [10] was 8.2 h and the Vd [11] was 2.7 L/kg. The bioavailability [12] was 67%, the Activity (T47D) was “Active” and the Activity (CAMA-1) was “Active”. For the same compound, the Activity (MDA-MB-361) was “Active”, the Activity (BT-474) was “Active” and the IC50 [13] was 3.2 nM. For the same compound, the Activity [14] was “Active”, the Activity [15] was “Dde” and the Activity [16] was “Tde”. The IC50 (Estrogen receptor) was 16.1 nM, the Activity [17] was “Active” and the inhibition in vivo at 15 mg/kg (MCF7 [18]) was -17%. For the same compound, the Activity [19] was “Non-Toxic”, the concentration at 2 h [20] was 609 ng/mL and the concentration at 2 h [21] was 480 ng/mL. For the same compound, the concentration at 2 h [22] was 442 ng/mL, the concentration at 2 h [23] was 4420 ng/mL and the concentration at 2 h [24] was 212 µg/mL. For the same compound, the Kp at 2 h [25] was 0.7, the Kp at 2 h [26] was 7.3 and the Kp at 2 h [27] was 3.6. For the same compound, the Kp at 2 h [28] was 34.9, the Kp at 2 h [29] was 11.7 and the Kp at 2 h [30] was 4.

From ChEMBL document CHEMBL5154828 (J Med Chem, 2022)
